# Data: patent US10485776B2, “Medicament for therapeutic treatment of neuropathic disease” (KEMPHYS LTD., priority 2013, dated 2019)
# “And” between values parts separate entries of the source, which are not always exact repeats. Equal values may be shown once.
# Experiments:
# [1] = test system: model leg (left) footpad of sciatic nerve-ligated rat; assay: Rat pain test, Seltzer partial sciatic nerve ligation model, von Frey up-and-down method, model leg (left); assay type: in vivo
# [2] = Serum pregabalin concentration after application to the back of an adult, LC/MS (Example 12); assay type: in vivo, human; details: 150 mg in aqueous solution applied to the back
# Protocol: An aqueous solution containing pregabalin (150 mg) was applied to the back of an adult. After the application, blood was collected, and the serum was deproteinized, and then reacted with dinitrobenzenesulfonyl chloride to derivatize pregabalin. Pregabalin was quantified by LC/MS. The pregabalin concentration reached 9 ng/ml 30 minutes after the administration, and this concentration was maintained thereafter over 3 hours or longer.
# [3] = test system: neuropathic pain mouse (L5 and L6 nerve ligation); assay: Suppression of allodynia pain in mouse nerve ligation model, von Frey filament; assay type: in vivo; details: for pain threshold of nerve-ligated group vs medium solvent-applied group: hind leg immersed
# Protocol: FIG. 1 is a graph showing results of measurement of analgesic effect obtained by applying an aqueous solution of pregabalin (2.5 mg/ml) to a neuropathic pain mouse. The asterisks (*) indicate the presence of a significant difference with respect to the distilled water-applied group.
# FIG. 2 is a graph showing results of measurement of analgesic effect obtained by applying an aqueous solution of pregabalin (7.5 mg/ml) to a neuropathic pain mouse. The asterisks (*) indicate the presence of a significant difference with respect to the distilled water-applied group.
# The nerves L5 and L6 of mice (n=6) were ligated with silk threads to prepare pain model. A sham group was prepared as a control (n=6). After 4 weeks, hind legs of the mice were immersed in a 2.5 mg/ml or 7.5 mg/ml aqueous solution of pregabalin (solution prepared by dissolving 75 mg of pregabalin in 10 ml or 30 ml of distilled water) 5 minutes before the measurement until the hair of whole right hind leg was wetted with the solution, and air-dried over 30 minutes after the application. In this state, pain threshold was measured by using a von Frey standard filament, and then pain threshold was measured in the same manner 60 minutes, 90 minutes, and 180 minutes thereafter.
# [4] = test system: normal leg (right) footpad of rat; assay: Rat pain test, Seltzer model, von Frey up-and-down method, normal leg (right); assay type: in vivo
# [5] = model site, 1 mg/site on footpad, individual animals No. 71-78
# [6] = model site, 1 mg/site, average of 8 animals
# [7] = normal site, 1 mg/site on footpad, individual animals No. 71-78
# [8] = normal site, 1 mg/site, average of 8 animals
smiles,measurement,setting,value
CC(C)C[C@H](CN)CC(=O)O [Pregabalin],"change of pain threshold values, pain model legs","[1]; 10.0 mg/mL in water with 0.1% Tween 80, 0.10 mL on footpad, after 1 hour",Sufficient increase
same,"pain threshold value, 1 Hour after administration",[1]; [5],8.0 g and 2.0 g and 6.0 g (5×) and 4.0 g
same,"pain threshold value, 3 Hour after administration",[1]; [5],6.0 g (2×) and 2.0 g (2×) and 4.0 g (4×)
same,"pain threshold value, 6 Hour after administration",[1]; [5],4.0 g and 1.0 g (3×) and 2.0 g (4×)
same,"pain threshold value, 1 Hour after administration, Average",[1]; [6],5.5 g
same,"pain threshold value, 3 Hour after administration, Average",[1]; [6],4.0 g
same,"pain threshold value, 6 Hour after administration, Average",[1]; [6],1.9 g
same,"pain threshold value, before administration, Average","[1]; model site, average of 8 animals, baseline before 1 mg/site",1.6 g
same,"pain threshold value, before administration","[1]; model site, individual animals No. 71-78, baseline before 1 mg/site",2.0 g (2×) and 1.4 g (6×)
same,time the serum concentration was maintained,[2]; 9 ng/ml level,≥ 3 h
same,concentration at 30 min,"[2]; male, human, serum, topical, 30 minutes after the administration",9 ng/mL
same,pain threshold of nerve-ligated group vs medium solvent-applied group,"[3]; 2.5 mg/ml aqueous solution (low dose group), FIG. 1",statistically significant improvement
same,pain threshold of nerve-ligated group vs medium solvent-applied group,"[3]; 7.5 mg/ml aqueous solution (high dose group), FIG. 2",statistically significant improvement
same,persistence of pain threshold improvement,[3]; both 2.5 and 7.5 mg/ml groups,maintained even after 3 hours
same,"change of pain threshold value, normal leg","[4]; 10.0 mg/mL in water with 0.1% Tween 80, 0.10 mL on footpad",Increase of the threshold value was also observed
same,"pain threshold value, 1 Hour after administration",[4]; [7],10.0 g and 8.0 g and 15.0 g (2×) and 26.0 g (4×)
same,"pain threshold value, 3 Hour after administration",[4]; [7],10.0 g (3×) and 26.0 g (2×) and 15.0 g (3×)
same,"pain threshold value, 6 Hour after administration",[4]; [7],10.0 g (5×) and 8.0 g and 15.0 g (2×)
same,"pain threshold value, 1 Hour after administration, Average",[4]; [8],19.0 g
same,"pain threshold value, 3 Hour after administration, Average",[4]; [8],15.9 g
same,"pain threshold value, 6 Hour after administration, Average",[4]; [8],11.0 g
same,"pain threshold value, before administration, Average","[4]; normal site, average of 8 animals, baseline before 1 mg/site",10.8 g
same,"pain threshold value, before administration","[4]; normal site, individual animals No. 71-78, baseline before 1 mg/site",8.0 g (2×) and 10.0 g (4×) and 15.0 g (2×)
